We go through 41 compounds from US20170101521A1, “THERMAL BASE GENERATOR, THERMOSETTING RESIN COMPOSITION, CURED FILM, CURED FILM MANUFACTURING METHOD, AND SEMICONDUCTOR DEVICE” (FUJIFILM Corporation, priority 2014, published 2017).

Series [1] in a line: Base generation temperature by differential scanning calorimetry. The format is physicochemical. The following applies: DSC, heated to 250° C. at 5° C./min in pressure-resistant capsule; peak temperature of lowest exothermic peak. The procedure: The base generation temperature may be measured, for example, by heating a compound to 250° C. at a rate of 5° C./minute in a pressure-resistant capsule, reading a peak temperature of an exothermic peak having the lowest temperature, and taking the peak temperature as a base generation temperature, using differential scanning calorimetry.
Using differential scanning calorimetry (Q2000, manufactured by TA), (A) a thermal base generator was heated to 250° C. at 5° C./min in a pressure-resistant capsule. The peak temperature of an exothermic peak having the lowest temperature was read to measure such a peak temperature as a base generation temperature.

The conditions of series [2]: literature value, or calculated with ACD/pKa for compounds not listed; cited from earlier work.

As to `CC(C)(c1ccc(N(CC(=O)O)CC(=O)O)cc1)c1ccc(N(CC(=O)O)CC(=O)O)cc1` [A-9], in series [1], the Base generation temperature came out at 140 °C. Same read-out and setting: the result for `O=C(O)CN(CCN(CC(=O)O)CC(=O)O)CC(=O)O` [X-8, reference compound] reads “Higher than 200 °C”. Take `C=C(C)C(=O)OC(CO)N(CC(=O)O)c1ccccc1` (stereo not drawn) [X-4, reference compound]: in series [1], the Base generation temperature result is “Higher than 200 °C”. Turning to `O=C(C[N+]1=C2CCCCCN2CCC1)c1ccccc1.O=C([O-])C(=O)O` [A-28], in series [2], the pKa1 of anion is reported as 1.2. The Base generation temperature in series [1] was determined as 140 °C. Regarding `C[N+]1(CC(=O)c2ccccc2)CCCCC1.O=C([O-])C(=O)O` [A-30], in series [2], the pKa1 of anion was 1.2. This compound yielded a Base generation temperature in series [1] of 140 °C. `O=C(O)CN(CC(=O)O)c1ccc(Cc2ccc(N(CC(=O)O)CC(=O)O)cc2)cc1` [A-8]: the Base generation temperature in series [1] worked out at 145 °C.

For the compound `CCN(CC)CC.O=C(O)CCC(=O)O` [A-13], in series [1], the Base generation temperature was 170 °C. On the same count and under the same terms, the result for `O=C(O)CN(CC(=O)O)c1cc(C(F)(F)F)cc(C(F)(F)F)c1` [A-5] reads 155 °C.

For `CCCCCCCC[N+](C)(C)CC(=O)c1ccccc1.O=C([O-])/C=C\C(=O)O` [A-39], in series [2], the pKa1 of anion is on record as 1.9. The compound also showed a Base generation temperature in series [1] of 150 °C. For `CN(CC(=O)O)CC(=O)O` [X-7, reference compound], the Base generation temperature result in series [1] was “Higher than 200 °C”.

As to `C[N+](C)(CC(=O)c1ccccc1)Cc1ccccc1.O=C([O-])/C=C\C(=O)O` [A-41], the pKa1 of anion in series [2] is 1.9. The compound also displayed a Base generation temperature in series [1] of 150 °C. As to `CCCCCCCCCCCC[N+](C)(C)CC(=O)c1ccccc1.O=C([O-])CCC(=O)O` [A-22], the pKa1 of anion in series [2] is listed as 4.2. This compound also registered a Base generation temperature in series [1] of 130 °C.

In series [1], `O=C(O)CN(CC(=O)Nc1ccccc1)c1ccccc1` [A-16] gave a Base generation temperature of 130 °C. As for `Cc1ccc(NC(CC(=O)O)C(=O)O)cc1` (stereo not drawn) [A-10], the Base generation temperature in series [1] stood at 200 °C. Regarding `CCCCC(CC)C[N+](C)(C)CC(=O)c1ccccc1.O=C([O-])/C=C\C(=O)O` (stereo not drawn) [A-42], in series [2], the pKa1 of anion is on record as 1.9. Also, the Base generation temperature in series [1] worked out at 150 °C.

In the case of `O=C(C[N+]1=C2CCCN2CCC1)c1ccccc1.O=C([O-])C(=O)O` [A-29], the pKa1 of anion in series [2] is 1.2. Moreover, the Base generation temperature in series [1] was 140 °C.

Consider `C1CCC2=[N+](CC1)CCCN2.O=C([O-])C(=O)O` [A-34], for which the pKa1 of anion in series [2] is recorded as 1.2. The Base generation temperature in series [1] was 80 °C.

In the case of `CCCCCCCCCCCC[N+](C)(C)CC(=O)c1ccccc1.O=C([O-])C(=O)O` [A-21], the pKa1 of anion in series [2] is reported as 1.2. Moreover, in series [1], the Base generation temperature is 150 °C. Take `C1CN2CCN1CC2.O=C(O)C(=O)O` [A-33]: in series [2], the pKa1 of anion was 1.2. The same compound gave a Base generation temperature in series [1] of 70 °C. Regarding `CCCCCCCCCCCC[N+](C)(C)CC(=O)c1ccc2ccccc2c1.O=C([O-])/C=C\C(=O)O` [A-23], the pKa1 of anion in series [2] was 1.9. Also, the Base generation temperature in series [1] turned out to be 140 °C. `CC(=O)c1ccc(N(CC(=O)O)CC(=O)O)cc1` [A-7]: the Base generation temperature in series [1] was found to be 155 °C. As to `C1CCC2=[N+](CC1)CCCN2.O=C([O-])CCC(=O)O` [A-12], the Base generation temperature in series [1] stood at 150 °C. Still for that read-out and setting: the value for `Cc1ccc(N(CC(=O)O)CC(=O)O)cc1` [A-2] was 140 °C.

On to `C[N+](C)(CC(=O)c1ccccc1)C1CCCCC1.O=C([O-])/C=C\C(=O)O` [A-40], for which the pKa1 of anion in series [2] is 1.9. This compound registered a Base generation temperature in series [1] of 150 °C. Regarding `CCCCCC[N+](C)(C)CC(=O)c1ccccc1.O=C([O-])/C=C\C(=O)O` [A-38], the pKa1 of anion in series [2] was 1.9. This compound also showed a Base generation temperature in series [1] of 150 °C. As to `O=C(O)CNc1ccccc1` [X-6, reference compound], the Base generation temperature result in series [1] is “Higher than 200 °C”. Consider `C[N+]1(C)CCCCC1.O=C([O-])C(=O)O` [A-32], for which the pKa1 of anion in series [2] is listed as 1.2. The Base generation temperature in series [1] was 190 °C. Take `C1CNC2=[N+](C1)CCCN2.O=C([O-])/C=C\C(=O)O` [X-9, reference compound]: the Base generation temperature result in series [1] was “Lower than 40 °C”. Compound `O=C(O)CN(CC(=O)O)c1ccccc1` [A-1] displayed a Base generation temperature in series [1] of 145 °C. `O=C(O)CN(CC(=O)O)c1ccc(-c2ccccc2)cc1` [A-4] returned a Base generation temperature in series [1] of 150 °C. Consider `CCC(O)C[N+](C)(C)[N-]C(=O)c1ccccc1OC` (stereo not drawn) [X-1, reference compound], for which the Base generation temperature in series [1] came out at 80 °C. Take `O=C(C[N+]12CCN(CC1)CC2)c1ccccc1.O=C([O-])C(=O)O` [A-31]: the pKa1 of anion in series [2] is given as 1.2. In series [1], the Base generation temperature turned out to be 140 °C.

`O=C(O)CC(Nc1ccccc1)C(=O)O` (stereo not drawn) [A-11] displayed a Base generation temperature in series [1] of 200 °C. Take `C=Cc1ccc(NCC(=O)O)cc1` [X-5, reference compound]: in series [1], the Base generation temperature entry is “Higher than 200 °C”. As to `COc1ccc(N(CC(=O)O)CC(=O)O)cc1` [A-3], in series [1], the Base generation temperature came out at 140 °C. For the compound `O=C(O)CN(CC(=O)O)c1ccc(C(F)(F)F)cc1` [A-6], the Base generation temperature in series [1] stood at 155 °C. On to `CCCCCCCCCCCC[N+](C)(C)CC(=O)c1ccccc1.O=C([O-])/C=C\C(=O)O` [A-18], for which the pKa1 of anion in series [2] was 1.9. For the same compound, the Base generation temperature in series [1] was determined as 150 °C. `C=CCN(CC(=O)O)CC(=O)O` [A-17] showed a Base generation temperature in series [1] of 190 °C. `CC[N+](CC)(CC)C(c1ccccc1)c1ccccc1.O=C([O-])C(=O)O` [A-36]: the pKa1 of anion in series [2] is on record as 1.2. This compound also registered a Base generation temperature in series [1] of 170 °C.

With `O=C(C[n+]1ccccc1)c1ccccc1.O=C([O-])C(=O)O` [A-27], the pKa1 of anion in series [2] is 1.2. The compound further displayed a Base generation temperature in series [1] of 140 °C. In the case of `C[n+]1ccccc1.O=C([O-])C(=O)O` [A-37], in series [2], the pKa1 of anion is listed as 1.2. Besides, the Base generation temperature in series [1] was found to be 180 °C.
